pIC50: −log10 of the molar value. Where “and” joins values, the source holds several entries; their conditions need not be identical. Identical values can stand only once.
Columns and labels:
Format in all cases: cell-based, human
[1] = test system: senescent IMR90 ER:RAS cells (4-OHT-induced); test: Nuclei count (Hoechst, high content imaging) senolytic assay, oncogene-induced senescence (OIS) model, senescent cells; conditions: for Mean % Cell Survival: Senescent, mean n=3 (Fig 3C); for % Cell Survival: senescence
Procedure, shortened: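 Cells seeded, left 24 h, then dosed across a 10-point […] series (10 μM down to 10 nM) with DMSO control. After 72 h, wells were fixed, permeabilised and stained with Hoechst. Nuclei were counted by high-content imaging in senescent and non-senescent IMR90 ER:RAS cultures.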

[2] = test system: senescent A549 cells (etoposide-induced); test: Nuclei count senolytic assay, therapy-induced senescence (TIS) model, senescent cells; conditions: for Mean % Cell Survival: Senescent cells; for % Cell Survival: senescence cells, single replicate
Procedure, shortened: (§1)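 Senescence in A549 cells is induced by 48 h of 100 μM etoposide followed by three days without drug, alongside non-senescent controls. Cells are seeded, rested 24 h, then exposed 72 h to compounds (10 nM–10 μM final, […] steps, triplicate) before nuclei are counted by imaging.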

[3] = test system: non-senescent control A549 cells; test: Nuclei count senolytic assay, TIS model, non-senescent control cells; conditions: for Mean % Cell Survival: Control cells; for % Cell Survival: control cells, single replicate
Procedure, shortened: as §1

## CO[C@H]1C[C@H](O[C@H]2CC[C@]3(C)[C@H]4CC[C@]5(C)[C@@H](C6=CC(=O)OC6)CC[C@]5(O)[C@@H]4CC[C@]3(O)C2)O[C@H](C)[C@H]1O[C@@H]1O[C@H](CO)[C@@H](O)[C@H](O)[C@H]1O [Periplocin, periplocin]
[1]; OIS IMR90 ER:RAS, Hoechst nuclei count, marginal effect on normal cells
  dose showing the clearest / optimal senolytic effect: 46.4 nM
[1]; OIS model, 4-OHT-induced IMR90 ER:RAS, nuclei count, 72 h
  pIC50: 7.62
[1]; log (dose) [M] -5, 72 h
  Mean % Cell Survival: 3.183%
[1]; log (dose) [M] -5.33, 72 h
  Mean % Cell Survival: 6.126%
[1]; log (dose) [M] -5.66, 72 h
  Mean % Cell Survival: 4.43%
[1]; log (dose) [M] -6, 72 h
  Mean % Cell Survival: 4.805%
[1]; log (dose) [M] -6.33, 72 h
  Mean % Cell Survival: 5.142%
[1]; log (dose) [M] -6.66, 72 h
  Mean % Cell Survival: 5.675%
[1]; log (dose) [M] -7, 72 h
  Mean % Cell Survival: 6.834%
[1]; log (dose) [M] -7.33, 72 h
  Mean % Cell Survival: 16.5597%
[1]; log (dose) [M] -7.66, 72 h
  Mean % Cell Survival: 54.5059%
[1]; log (dose) [M] -8, 72 h
  Mean % Cell Survival: 96.9401%
[1]; experimental screen, OIS IMR90 ER:RAS
  senolytic activity (in words): clear senolytic action
[1]; ratio between the IC50 of control cells and the IC50 of senescent cells, OIS IMR90 ER:RAS
  senolytic index (SI): 12.3
[1]; log (dose) [M] -5, individual replicates (Fig 3D)
  % Cell Survival: 3.074% and 3.321% and 3.154%
[1]; log (dose) [M] -5.33, individual replicates (Fig 3D)
  % Cell Survival: 5.0494% and 9.706% and 3.6215%
[1]; log (dose) [M] -5.66, individual replicates (Fig 3D)
  % Cell Survival: 4.72% and 4.5977% and 3.972%
[1]; log (dose) [M] -6, individual replicates (Fig 3D)
  % Cell Survival: 4.061% and 4.981% and 5.374%
[1]; log (dose) [M] -6.33, individual replicates (Fig 3D)
  % Cell Survival: 6.147% and 3.321% and 5.958%
[1]; log (dose) [M] -6.66, individual replicates (Fig 3D)
  % Cell Survival: 4.501% and 7.152% and 5.374%
[1]; log (dose) [M] -7, individual replicates (Fig 3D)
  % Cell Survival: 5.818% and 7.791% and 6.893%
[1]; log (dose) [M] -7.33, individual replicates (Fig 3D)
  % Cell Survival: 17.8924% and 15.198% and 16.5888%
[1]; log (dose) [M] -7.66, individual replicates (Fig 3D)
  % Cell Survival: 42.1515% and 64.2401% and 57.1262%
[1]; log (dose) [M] -8, individual replicates (Fig 3D)
  % Cell Survival: 93.8529% and 97.318% and 99.6495%
[2]; TIS A549, Hoechst labelling, marginal effect on normal cells
  concentration at which a senolytic effect was reached: 46.4 nM
[2]; TIS model, etoposide-induced senescent A549, nuclei count, 72 h
  pIC50: 7.14
[2]; experimental screen, TIS senescent A549
  senolytic action (in words): strong senolytic action
[2]; log (dose) [M] -5
  Mean % Cell Survival: 2.656%
  % Cell Survival: 2.664% and 2.743% and 2.561%
[2]; log (dose) [M] -5.33
  Mean % Cell Survival: 3.4604%
  % Cell Survival: 2.7192% and 5.421% and 2.241%
[2]; log (dose) [M] -5.66
  Mean % Cell Survival: 3.427%
  % Cell Survival: 2.83% and 4.507% and 2.945%
[2]; log (dose) [M] -6
  Mean % Cell Survival: 6.477%
  % Cell Survival: 6.937% and 6.9889% and 5.506%
[2]; log (dose) [M] -6.33
  Mean % Cell Survival: 11.1387%
  % Cell Survival: 13.0411% and 10.516% and 9.859%
[2]; log (dose) [M] -6.66
  Mean % Cell Survival: 17.1368%
  % Cell Survival: 19.7003% and 13.9125% and 17.7977%
[2]; log (dose) [M] -7
  Mean % Cell Survival: 34.3857%
  % Cell Survival: 35.4051% and 33.1809% and 34.5711%
[2]; log (dose) [M] -7.33
  Mean % Cell Survival: 62.5957%
  % Cell Survival: 65.3163% and 61.2671% and 61.2036%
[2]; log (dose) [M] -7.66
  Mean % Cell Survival: 94.3691%
  % Cell Survival: 88.7902% and 97.518% and 96.799%
[2]; log (dose) [M] -8
  Mean % Cell Survival: 98.9494%
  % Cell Survival: 101.831% and 100.523% and 94.4942%
[3]; TIS model, non-senescent A549, nuclei count, 72 h
  pIC50: 6.57
[3]; log (dose) [M] -5
  Mean % Cell Survival: 2.124%
  % Cell Survival: 2.877% and 2.211% and 1.286%
[3]; log (dose) [M] -5.33
  Mean % Cell Survival: 3.638%
  % Cell Survival: 1.2112% and 8.916% and 0.7857%
[3]; log (dose) [M] -5.66
  Mean % Cell Survival: 7.571%
  % Cell Survival: 13.9288% and 0.7846% and 8%
[3]; log (dose) [M] -6
  Mean % Cell Survival: 7.77%
  % Cell Survival: 11.9606% and 5.492% and 5.857%
[3]; log (dose) [M] -6.33
  Mean % Cell Survival: 26.1787%
  % Cell Survival: 37.7744% and 16.7618% and 24%
[3]; log (dose) [M] -6.66
  Mean % Cell Survival: 59.1283%
  % Cell Survival: 65.1022% and 52.2111% and 60.0714%
[3]; log (dose) [M] -7
  Mean % Cell Survival: 84.2496%
  % Cell Survival: 92.3543% and 73.8231% and 86.5714%
[3]; log (dose) [M] -7.33
  Mean % Cell Survival: 108.222%
  % Cell Survival: 116.881% and 101.07% and 106.714%
[3]; log (dose) [M] -7.66
  Mean % Cell Survival: 106.048%
  % Cell Survival: 102.877% and 112.197% and 103.071%
[3]; log (dose) [M] -8
  Mean % Cell Survival: 97.1202%
  % Cell Survival: 99.8486% and 91.5121% and 100%

— PMC10257182, “Discovery of senolytics using machine learning” (Nature Communications, 2023)
